Assay results as given in patent US20250144081A1, “METHODS FOR REDUCING ALCOHOL, DRUG, AND FOOD INTAKE” (The Scripps Research Institute, priority 2022, published 2025).
Entries after “also recorded” stand apart in the source; their conditions may differ.

Assays:
C57BL/6J mice [1] = assay: rotarod test, motor coordination, mice; assay type: in vivo, mouse; details: CYM-5442; male C57BL/6J mice
Protocol: (§1) Effect of CYM-5442 on motor coordination was evaluated in male and female C57NBL/6J mice and male Wistar rats in the rotarod apparatus (Rotamex-5, Columbus Instruments, USA). Briefly, one week before testing, animals were extensively habituated to handling and intraperitoneal injections. On test day, animals were weighed and allocated into the four experimental groups. CYM-5442 or vehicle were injected intraperitoneally 60 min before the start of the first trial. Each subject underwent 3 trials of 300 s (intertrial interval 60 s) with a rotarod acceleration from 4 to 40 rpm. Trials in which animals fell before 5 s, calculated from the beginning of the trial, were repeated. For each animal, the latency to fall was assessed and expressed as the average values over the 3 trials.

C57BL/6J mice [2] = assay: chronic treatment of LFD- or HFD-fed mice: body weight, food and water intake; assay type: in vivo, mouse
Protocol: (§2) The effect of chronic daily administration of CYM-5442 on body weight and body fat content was tested in mice fed either a low-fat diet (LFD; D12450K, 10 kcal % Fat, Research Diets, Inc. NJ, US) or a high-fat diet (HFD; D07011903, 45 kcal % Fat) ad libitum. Mice were treated with CYM-5442 (2.5 mg/kg, i.p.) or vehicle 5 days a week over 7 consecutive weeks. […] This is consistent with the moderate half-life of the drug that allows adlibitum fed mice to eat through the day. This finding supports that the metabolic effect of CYM-5442 of increased fat utilization or lipolysis is independent of reduction of food intake.

[3] = in words only; cited from earlier work
C57BL/6J mice [4] = assay: respiratory exchange ratio (RER) by indirect calorimetry (CLAMS); assay type: in vivo, mouse
Protocol: The effect of CYM-5442 on energy metabolism was tested by indirect calorimetry with the Comprehensive Lab Animal Monitoring System (CLAMS; Columbus Instruments, Columbus, OH USA). After 1-week acclimatization, on test day, mice were removed from metabolic chambers, injected with CYM-5442 3 h into the dark phase of the light/dark cycle and then placed back into chambers. […] The RER indicates the energy source the organism uses over the day. It is typically measured on a scale from 0.7 to 1.
(§3) Effect of CYM-5442 was evaluated on food (g) and water intake (ml) and respiratory exchange ratio (RER: VCO2/VO2) of male C57BL/6J mice (n=30) allocated into CLAMS (Comprehensive Lab Animal Monitoring System, Columbus Instruments, Columbus, OH USA) chambers. After 1-week acclimatization, on test day, mice were removed from the metabolic chambers, injected with CYM-5442 60 min before 3 h into the dark of the light/dark cycle and then placed back into the chambers. Food, water intake and RER were monitored starting the 1st to the 12th h of the dark phase of the light/dark cycle.

C57BL/6J mice [5] = assay: loss of righting reflex (LORR), sensitivity to alcohol's hypnotic action; assay type: in vivo, mouse
Wistar rats [6] = assay: rotarod test, motor coordination, rats; assay type: in vivo, rat; details: CYM-5442 5 mg/kg; male Wistar rats
Protocol: as §1

C57BL/6J mice [7] = assay: body composition by quantitative nuclear magnetic resonance (qNMR) after chronic treatment; assay type: in vivo, mouse; details: chronic CYM-5442 2.5 mg/kg i.p.
Protocol: as §2
Body composition was determined with a quantitative nuclear magnetic resonance instrument (qNMR, Echo MRI, Houston, TX).

Wistar rats [8] = assay: intravenous methamphetamine self-administration (FR1 and progressive ratio); assay type: in vivo, rat; details: CYM-5442 5 mg/kg i.p., male Wistar rats, vs vehicle
Protocol: The effect of CYM-5442 was tested on methamphetamine self-administering rats. Male Wistar rats were aseptically implanted with chronic silastic catheters in the right jugular vein and were trained to self-administer methamphetamine (1 h/day at a dose of 0.05 mg/kg/infusion). Rats were trained to self-administer methamphetamine under a fixed-ratio 1 schedule of reinforcement (FR1) whereby one lever press results in the delivery of one methamphetamine infusion (0.05 mg/kg) under 1-h daily sessions.
Male Wistar rats were aseptically implanted with intravenous catheters in the right jugular vein under deep isoflurane anesthesia as previously described in Ahmed et al. (Proc Natl Acad Sci USA 102:11533-8). At the time of testing, the rats' body weights ranged between 350 and 400 g.
Self-administration was performed in operant conditioning chambers (Med Associates, St. Albans, VT, USA) that were enclosed in lit, sound-attenuating, ventilated environmental cubicles. Methamphetamine was delivered through plastic catheter tubing that was connected to an infusion pump. The infusion pump was activated by responses on the right (active) lever. […] A computer controlled fluid delivery and behavioral data recording. All of the rats were tested for methamphetamine self-administration on a continuous reinforcement (fixed ratio 1, FR1) schedule. […] A 20-s timeout (TO) period followed each METH infusion. […]

C57BL/6J mice [9] = assay: acute food intake in 4 h sessions (CLAMS); assay type: in vivo, mouse; details: vs 0 mg/kg
Protocol: The acute effect of CYM-5442 on food intake was measured in 4 h sessions. CYM-5442 was administered 1 h before the sessions. CYM-5442 reduced food intake in a dose-dependent manner at the doses of 2.5 and 5 mg/Kg in the first 2 h (FIG. 7A) and at the dose of 5 mg/kg after 4 h (FIG. 7B).
as §3

C57BL/6J mice [10] = assay: drinking in the dark (DID) binge drinking paradigm, alcohol intake; assay type: in vivo, mouse; details: for alcohol consumption in the DID paradigm over a 4 h drinking session: first 2 h and 4 h
Protocol: The S1P agonists fingolimod (1, 2, and 4 mg/kg), ozanimod (0.25, 0.5, and 1 mg/kg) and CYM-5442 (1.25, 2.5, and 5 mg/kg) (Tocris, Minneapolis, MN, USA) were suspended in saline with 1% (w/v) Tween 80 and administered intraperitoneally (i.p.) (injection volume in mice 10 ml/kg, in rats 2 ml/kg). Pretreatment time was 30 min for fingolimod and ozanimod, while CYM-5442 was injected 60 min before each behavioral experiment.
Acute effect of the S1P agonists was tested in alcohol binge-like drinking in male and female C57BL/6J mice exposed to the drinking in the dark paradigm. As described by Rhodes and colleagues (Rhodes et al. Physiol Behav 84:53-63, 2005; Thiele et al. Alcohol 48:235-41, 2014) 3 h after lights go off, the water bottle of single-housed mice was replaced with a bottle containing 20% (v/v) alcohol and left in place for 2 h, over three consecutive days during which mice stabilized alcohol drinking. […] Over the experiment, the amount of alcohol consumed by mice was measured by weighing (0.01 g accuracy) the bottle immediately before and after each drinking session. Alcohol consumption was expressed as grams of pure alcohol per kilogram of body weight (g/kg). In addition, at the end of the second 2 h drinking session, blood samples were collected from the tip of the tail of each mouse and BALs were measured.

C57BL/6J mice [11] = assay: saccharin consumption in the DID paradigm; assay type: in vivo, mouse; details: CYM-5442 5 mg/kg i.p., male C57BL/6J mice, first 2 h and 4 h
Text: An identical experimental plan was adopted to evaluate acute effects of CYM-5442 on the no-drugs reinforcer saccharin (0.002% w/v). Independent groups of C57BL/6J mice were used for testing the effect of CYM-5442 on saccharin intake.

MeCP2^308/Y mice = assay: DID paradigm in low drinking MeCP2^308/Y mice, alcohol intake and BALs; assay type: in vivo, mouse; details: PF-543 10 mg/kg i.p., 30 min before the drinking session
[12] = tested on: mice with degenerative and inflammatory conditions; details: cited from earlier work
body weight (fingolimod) = details: in vivo
[13] = rotarod test, motor impairment by S1P receptor agonists (fingolimod); details: in vivo
[14] = CYM-5442 2.5 mg/kg i.p. chronic, HFD-fed or LFD-fed mice, vs vehicle

## CCOc1ccc(-c2nc(-c3cccc4c3CCC4NCCO)no2)cc1OCC (centres unmarked) [CYM-5442]
C57BL/6J mice [1]
  motor coordination performance in the rotarod apparatus (latency to fall, active run time): did not affect; also recorded: does not alter
C57BL/6J mice [2]; [14]
  overall daily (24 h) food intake: did not differ
  overall daily (24 h) water intake: did not differ
C57BL/6J mice [2]; CYM-5442 2.5 mg/kg i.p. daily, 5 days a week over 7 weeks, vs vehicle-treated HFD-fed mice
  body weight gain in HFD-fed mice: effectively prevented
[3]
  half-life (circulating): longer; also recorded: moderate
C57BL/6J mice [4]; CYM-5442 i.p. 1.25, 2.5, 5 mg/kg, for 1-3 hours, dose-dependent
  Respiratory Exchange Ratio (RER), time course: significantly lower; also recorded: significantly reduced
C57BL/6J mice [4]; CYM-5442 i.p., 0 mg/kg vs 5 mg/kg
  RER, average of 2 hours, first 2 hrs measure point (1-3 hrs after injection): significantly reduced
C57BL/6J mice [5]; CYM-5442 2.5 mg/kg i.p., alcohol 3.5 g/kg, male C57BL/6J mice
  duration of loss of righting reflex (LORR): significantly increases
Wistar rats [6]
  motor coordination in the rotarod apparatus: did not affect
C57BL/6J mice [7]
  body fat in the low-fat diet (LFD)-fed control group (reduction): not
  lean body mass: without affecting
C57BL/6J mice [7]; vs vehicle in HFD, 2.5 mg/kg
  body fat in the HFD-fed group: significantly reduced
Wistar rats [8]; acute
  lever-responding for methamphetamine, fixed-ratio 1 (FR1), 1-h self-administration session: significantly reduced
Wistar rats [8]
  methamphetamine self-administration under progressive ratio (PR) schedule, break point: significantly reduced; also recorded: lower
C57BL/6J mice [9]; CYM-5442 2.5 mg/kg and 5 mg/kg
  food-intake during the 1st 2-hrs: significantly reduced
C57BL/6J mice [9]; CYM-5442 5 mg/kg
  food-intake over the entire 4-hrs session: reduced
C57BL/6J mice [10]; CYM-5442 2.5, 5 mg/kg i.p., male C57BL/6J mice
  alcohol consumption in the DID paradigm over a 4 h drinking session: reduces
C57BL/6J mice [11]
  saccharin [0.002% (w/v)] consumption in the DID paradigm over a 4 h drinking session: reduces

## Cc1cc(CS(=O)(=O)c2ccccc2)cc(OCc2ccc(CN3CCC[C@@H]3CO)cc2)c1 [PF-543]
MeCP2^308/Y mice
  alcohol consumption of MeCP2^308/Y mice in the DID paradigm: increased

## CCCCCCCCc1ccc(CCC(N)(CO)CO)cc1 [fingolimod]
[12]
  motor deficits: ameliorated
Body weight (fingolimod)
  body weight: did not affect
[3]
  half-life (circulating): longer
[13]
  motor impairment, performance in the rotarod test: did not impair
C57BL/6J mice [10]; fingolimod 4 mg/kg i.p., C57BL/6J mice
  alcohol consumption in the DID paradigm over a 4 h drinking session: reduced

## CC(C)Oc1ccc(-c2nc(-c3cccc4c3CC[C@@H]4NCCO)no2)cc1C#N [ozanimod, Ozanimod (RPC1063)]
[12]
  motor deficits: ameliorated
[3]
  half-life (circulating): short
C57BL/6J mice [5]; ozanimod 0.1 and 0.3 mg/kg i.p., C57BL/6J mice
  duration of loss of righting reflex (LORR): significantly increased
C57BL/6J mice [10]; ozanimod 0.25-1 mg/kg i.p., C57BL/6J mice, 4 h, p>0.05
  alcohol consumption at the end of the 4-h drinking session (reducing effect): not evident
C57BL/6J mice [10]; ozanimod 0.25-1 mg/kg i.p., C57BL/6J mice, first 2 h, p<0.05
  alcohol consumption in the DID paradigm after 2 h: reduced
